According to PubChem BioAssay (NCI):
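1) Cells in 96-well plates. 2) Compound, 48 h, 5 concentrations. 3) Linear interpolation between surrounding doses. 4) Unreached endpoint = highest concentration. TGI marks complete inhibition of growth.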

Experiments:
Assay in all cases: NCI-60 cell line screen, 48 h
786-0 renal = system: 786-0 renal
A498 renal = system: A498 renal
A549 NSCLC = system: A549 NSCLC
ACHN renal = system: ACHN renal
CAKI-1 renal = system: CAKI-1 renal
CCRF-CEM leukemia = system: CCRF-CEM leukemia
COLO 205 colon = system: COLO 205 colon
DLD-1 colon = system: DLD-1 colon
DMS 114 small cell lung = system: DMS 114 small cell lung
DMS 273 small cell lung = system: DMS 273 small cell lung
EKVX NSCLC = system: EKVX NSCLC
HCC-2998 colon = system: HCC-2998 colon
HCT-116 colon = system: HCT-116 colon
HCT-15 colon = system: HCT-15 colon
HL-60(TB) leukemia = system: HL-60(TB) leukemia
HOP-18 NSCLC = system: HOP-18 NSCLC
HOP-62 NSCLC = system: HOP-62 NSCLC
HOP-92 NSCLC = system: HOP-92 NSCLC
HT29 colon = system: HT29 colon
IGROV1 ovarian = system: IGROV1 ovarian
K-562 leukemia = system: K-562 leukemia
KM12 colon = system: KM12 colon
KM20L2 colon = system: KM20L2 colon
LOX IMVI melanoma = system: LOX IMVI melanoma
LXFL 529 NSCLC = system: LXFL 529 NSCLC
M14 melanoma = system: M14 melanoma
M19-MEL melanoma = system: M19-MEL melanoma
MALME-3M melanoma = system: MALME-3M melanoma
MOLT-4 leukemia = system: MOLT-4 leukemia
NCI-H23 lung = system: NCI-H23 lung
NCI-H460 lung = system: NCI-H460 lung
OVCAR-3 ovarian = system: OVCAR-3 ovarian
OVCAR-4 ovarian = system: OVCAR-4 ovarian
OVCAR-5 ovarian = system: OVCAR-5 ovarian
OVCAR-8 ovarian = system: OVCAR-8 ovarian
RXF 393 renal = system: RXF 393 renal
SF-268 CNS = system: SF-268 CNS
SF-295 CNS = system: SF-295 CNS
SF-539 CNS = system: SF-539 CNS
SK-MEL-28 melanoma = system: SK-MEL-28 melanoma
SK-MEL-5 melanoma = system: SK-MEL-5 melanoma
SK-OV-3 ovarian = system: SK-OV-3 ovarian
SN12C renal = system: SN12C renal
SNB-19 CNS = system: SNB-19 CNS
SNB-75 CNS = system: SNB-75 CNS
SR leukemia = system: SR leukemia
SW-620 colon = system: SW-620 colon
TK-10 renal = system: TK-10 renal
U251 CNS = system: U251 CNS
UACC-257 melanoma = system: UACC-257 melanoma
UACC-62 melanoma = system: UACC-62 melanoma
UO-31 renal = system: UO-31 renal
XF 498 CNS = system: XF 498 CNS
NCI-H226 lung = system: NCI-H226 lung
NCI-H522 lung = system: NCI-H522 lung
RXF-631 renal = system: RXF-631 renal
SK-MEL-2 melanoma = system: SK-MEL-2 melanoma
SNB-78 CNS = system: SNB-78 CNS

`CC1=C2[C@H](c3ccccc3)C3C=CC2(c2ccccc23)N(C(=O)C(c2ccccc2)c2ccccc2)C1=O` (stereo not given in full) was tested, and the TGI (786-0 renal) was greater than 100 µM, the TGI (A498 renal) was greater than 100 µM and the TGI (A549 NSCLC) was greater than 100 µM. The TGI (ACHN renal) was greater than 100 µM, the TGI (CAKI-1 renal) was greater than 100 µM and the TGI (CCRF-CEM leukemia) was greater than 100 µM. It also gave a TGI (COLO 205 colon) greater than 100 µM, a TGI (DLD-1 colon) greater than 100 µM and a TGI (DMS 114 small cell lung) greater than 100 µM. For the same compound, the TGI (DMS 273 small cell lung) was greater than 100 µM, the TGI (EKVX NSCLC) was greater than 100 µM and the TGI (HCC-2998 colon) was greater than 100 µM. The TGI (HCT-116 colon) was greater than 100 µM, the TGI (HCT-15 colon) was greater than 100 µM and the TGI (HL-60(TB) leukemia) was greater than 100 µM. For the same compound, the TGI (HOP-18 NSCLC) was greater than 100 µM, the TGI (HOP-62 NSCLC) was greater than 100 µM and the TGI (HOP-92 NSCLC) was greater than 100 µM. It also gave a TGI (HT29 colon) greater than 100 µM, a TGI (IGROV1 ovarian) greater than 100 µM and a TGI (K-562 leukemia) greater than 100 µM. For the same compound, the TGI (KM12 colon) was greater than 100 µM, the TGI (KM20L2 colon) was greater than 100 µM and the TGI (LOX IMVI melanoma) was greater than 100 µM. For the same compound, the TGI (LXFL 529 NSCLC) was greater than 100 µM, the TGI (M14 melanoma) was greater than 100 µM and the TGI (M19-MEL melanoma) was greater than 100 µM. It also gave a TGI (MALME-3M melanoma) greater than 100 µM, a TGI (MOLT-4 leukemia) greater than 100 µM and a TGI (NCI-H23 lung) greater than 100 µM. The TGI (NCI-H460 lung) was greater than 100 µM, the TGI (OVCAR-3 ovarian) was greater than 100 µM and the TGI (OVCAR-4 ovarian) was greater than 100 µM. The TGI (OVCAR-5 ovarian) was greater than 100 µM, the TGI (OVCAR-8 ovarian) was greater than 100 µM and the TGI (RXF 393 renal) was greater than 100 µM. For the same compound, the TGI (SF-268 CNS) was greater than 100 µM, the TGI (SF-295 CNS) was greater than 100 µM and the TGI (SF-539 CNS) was greater than 100 µM. The TGI (SK-MEL-28 melanoma) was greater than 100 µM, the TGI (SK-MEL-5 melanoma) was greater than 100 µM and the TGI (SK-OV-3 ovarian) was greater than 100 µM. The TGI (SN12C renal) was greater than 100 µM, the TGI (SNB-19 CNS) was greater than 100 µM and the TGI (SNB-75 CNS) was greater than 100 µM. It also gave a TGI (SR leukemia) greater than 100 µM, a TGI (SW-620 colon) greater than 100 µM and a TGI (TK-10 renal) greater than 100 µM. For the same compound, the TGI (U251 CNS) was greater than 100 µM, the TGI (UACC-257 melanoma) was greater than 100 µM and the TGI (UACC-62 melanoma) was greater than 100 µM. It also gave a TGI (UO-31 renal) greater than 100 µM and a TGI (XF 498 CNS) greater than 100 µM.

In the case of `CN(C)CCNC(=O)c1cccc2ncc(-c3ccccc3)nc12`, the TGI (786-0 renal) is reported as greater than 100 µM, the TGI (A498 renal) is reported as 31.4 µM and the TGI (A549 NSCLC) is reported as greater than 74.9 µM. The TGI (ACHN renal) was greater than 94.3 µM, the TGI (CAKI-1 renal) was greater than 68.6 µM and the TGI (CCRF-CEM leukemia) was 56.8 µM. For the same compound, the TGI (COLO 205 colon) was 15.5 µM, the TGI (DLD-1 colon) was 44.9 µM and the TGI (DMS 114 small cell lung) was 26.6 µM. It also gave a TGI (DMS 273 small cell lung) of 17.8 µM, a TGI (EKVX NSCLC) of 34.3 µM and a TGI (HCC-2998 colon) of 23.4 µM. The TGI (HCT-116 colon) was 22 µM, the TGI (HCT-15 colon) was 25.2 µM and the TGI (HL-60(TB) leukemia) was 42.4 µM. The TGI (HOP-18 NSCLC) was greater than 64.3 µM, the TGI (HOP-62 NSCLC) was 34.7 µM and the TGI (HOP-92 NSCLC) was 59.1 µM. The TGI (HT29 colon) was 52.4 µM, the TGI (IGROV1 ovarian) was greater than 74.6 µM and the TGI (K-562 leukemia) was 61.9 µM. For the same compound, the TGI (KM12 colon) was 29.4 µM, the TGI (KM20L2 colon) was 38 µM and the TGI (LOX IMVI melanoma) was 29.5 µM. It also gave a TGI (LXFL 529 NSCLC) of 53.7 µM, a TGI (M14 melanoma) of 27.2 µM and a TGI (M19-MEL melanoma) of 29.5 µM. The TGI (MALME-3M melanoma) was 26.5 µM, the TGI (MOLT-4 leukemia) was 9.35 µM and the TGI (NCI-H226 lung) was 31.3 µM. The TGI (NCI-H23 lung) was 32.2 µM, the TGI (NCI-H460 lung) was 19.6 µM and the TGI (NCI-H522 lung) was 21.1 µM. The TGI (OVCAR-3 ovarian) was 66.8 µM, the TGI (OVCAR-4 ovarian) was 26.7 µM and the TGI (OVCAR-5 ovarian) was 30.5 µM. The TGI (OVCAR-8 ovarian) was greater than 93 µM, the TGI (RXF 393 renal) was 18 µM and the TGI (RXF-631 renal) was greater than 82.5 µM. For the same compound, the TGI (SF-268 CNS) was 29.4 µM, the TGI (SF-295 CNS) was 58.5 µM and the TGI (SF-539 CNS) was 16.8 µM. For the same compound, the TGI (SK-MEL-2 melanoma) was 27.9 µM, the TGI (SK-MEL-28 melanoma) was 36.1 µM and the TGI (SK-MEL-5 melanoma) was 24.1 µM. The TGI (SK-OV-3 ovarian) was 82.6 µM, the TGI (SN12C renal) was 42.2 µM and the TGI (SNB-19 CNS) was 78.7 µM. The TGI (SNB-75 CNS) was 32.9 µM, the TGI (SNB-78 CNS) was 40 µM and the TGI (SR leukemia) was 6.95 µM. It also gave a TGI (SW-620 colon) of 63.5 µM, a TGI (TK-10 renal) of 34.7 µM and a TGI (U251 CNS) of 41.7 µM. For the same compound, the TGI (UACC-257 melanoma) was 31.3 µM, the TGI (UACC-62 melanoma) was 27.2 µM and the TGI (UO-31 renal) was greater than 67.8 µM.
